Measured values taken from ChEMBL document CHEMBL2375215, “Phenylpropiophenone derivatives as potential anticancer agents: synthesis, biological evaluation and quantitative structure-activity relationship study” (Eur J Med Chem, 2013).

Assays:
Aorta = test: Cytotoxicity against rat aorta at < 10 uM in presence of potassium channel and calcium channel blocker; format: tissue-based
[1] = Selectivity index, ratio of IC50 for PHA-stimulated human PBMC to IC50 for human LS174 cells
[2] = Selectivity index, ratio of IC50 for human PBMC to IC50 for human LS174 cells
PC-3 [3] = test: Selectivity index, ratio of IC50 for human PBMC to IC50 for human PC3 cells
PC-3 [4] = test: Selectivity index, ratio of IC50 for PHA-stimulated human PBMC to IC50 for human PC3 cells
MCF7 [5] = test: Selectivity index, ratio of IC50 for PHA-stimulated human PBMC to IC50 for human MCF7 cells
MCF7 [6] = test: Selectivity index, ratio of IC50 for human PBMC to IC50 for human MCF7 cells
K562 [7] = test: Selectivity index, ratio of IC50 for PHA-stimulated human PBMC to IC50 for human K562 cells
K562 [8] = test: Selectivity index, ratio of IC50 for human PBMC to IC50 for human K562 cells
[9] = Selectivity index, ratio of IC50 for PHA-stimulated human PBMC to IC50 for human Fem-X cells; format: functional
[10] = Selectivity index, ratio of IC50 for human PBMC to IC50 for human Fem-X cells
HeLa [11] = test: Selectivity index, ratio of IC50 for PHA-stimulated human PBMC to IC50 for human HeLa cells
HeLa [12] = test: Selectivity index, ratio of IC50 for human PBMC to IC50 for human HeLa cells
PBMC [13] = test: Cytotoxicity against human PBMC assessed as decrease in cell survival after 72 hrs by MTT assay; format: cell-based
PBMC [14] = test: Cytotoxicity against PHA-stimulated human PBMC assessed as decrease in cell survival after 72 hrs by MTT assay; format: cell-based
[15] = (§1) Cytotoxicity against human LS174 cells assessed as decrease in cell survival after 72 hrs by MTT assay; format: functional, cell-based; details: LS174, 72 h
LS174 = test: as §1; format: functional, cell-based
PC-3 [16] = test: Cytotoxicity against human PC3 cells assessed as decrease in cell survival after 72 hrs by MTT assay; format: functional, cell-based; details: for IC50: PC-3, 72 h
MCF7 [17] = test: Cytotoxicity against human MCF7 cells assessed as decrease in cell survival after 72 hrs by MTT assay; format: functional, cell-based; details: for IC50: MCF7, 72 h
K562 [18] = test: Cytotoxicity against human K562 cells assessed as decrease in cell survival after 72 hrs by MTT assay; format: functional, cell-based; details: for IC50: K562, 72 h
[19] = (§2) Cytotoxicity against human Fem-X cells assessed as decrease in cell survival after 72 hrs by MTT assay; format: functional, cell-based
Fem-X = test: as §2; format: functional, cell-based
HeLa [20] = test: Cytotoxicity against human HeLa cells assessed as decrease in cell survival after 72 hrs by MTT assay; format: functional, cell-based

CCCNCC(O)COc1ccccc1C(=O)CCc1ccccc1Cl.Cl (racemic)
Activity (Aorta): Not Active
Ratio IC50 [1]: 4.72
Ratio IC50 [2]: 5.31
Ratio IC50 (PC-3 [3]): 4.72
Ratio IC50 (PC-3 [4]): 4.2
Ratio IC50 (MCF7 [5]): 2.62
Ratio IC50 (MCF7 [6]): 2.95
Ratio IC50 (K562 [7]): 8.82
Ratio IC50 (K562 [8]): 9.91
Ratio IC50 [9]: 10.8
Ratio IC50 [10]: 12.14
Ratio IC50 (HeLa [11]): 17.63
Ratio IC50 (HeLa [12]): 19.83
IC50 (PBMC [13]): 59.5 µM
IC50 (PBMC [14]): 52.9 µM
IC50 ([15]; read-out: IC50): 11.2 µM
IC50 ([15]; read-out: pIC50 (converted)): 11.2 µM
Activity (LS174): Dose-dependent effect
Activity (PC-3 [16]): Dose-dependent effect
IC50 (PC-3 [16]; read-out: IC50): 12.6 µM
IC50 (PC-3 [16]; read-out: pIC50 (converted)): 12.6 µM
Activity (MCF7 [17]): Dose-dependent effect
IC50 (MCF7 [17]; read-out: IC50): 20.2 µM
IC50 (MCF7 [17]; read-out: pIC50 (converted)): 20.2 µM
Activity (K562 [18]): Dose-dependent effect
IC50 (K562 [18]; read-out: IC50): 6 µM
IC50 (K562 [18]; read-out: pIC50 (converted)): 6 µM
IC50 ([19]; read-out: IC50): 4.9 µM
IC50 ([19]; read-out: pIC50 (converted)): 4.9 µM
Activity (Fem-X): Dose-dependent effect
Activity (HeLa [20]): Dose-dependent effect
IC50 (HeLa [20]; read-out: IC50): 3 µM
IC50 (HeLa [20]; read-out: pIC50 (converted)): 3 µM
